Activity calls are given as the source filed them. No rule for the calls is given here.
Test system: rodent carcinogenicity bioassays, tumor incidence
Assay: CCRIS carcinogenicity studies
Method in brief: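 Archive of carcinogenicity, mutagenicity, tumor promotion and tumor inhibition results drawn from journals, NCI reports and other sources, expert-reviewed; covers 1985-2011 and is no longer updated.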

CCCC(=O)CN(C)N=O
carcinogen call (Species: RAT, Strain/Sex: WISTAR/MALE, FEMALE, Route: SUBCUTANEOUS, Dose: 0, 75 MG/KG 1/WK FOR 6 WK TO ADULT ANIMALS (STUDY DURATION: LIFETIME), Tumor Site: Type of Lesion: ESOPHAGUS: PAPILLOMA, NASAL CAVITY: PAPILLOMA, SQUAMOUS CARCINOMA OR ADENOMA, SOFT TISSUE (INJECTION SITE): SARCOMA, THY, Tumor Site: Type of Lesion: ESOPHAGUS: PAPILLOMA, NASAL CAVITY: PAPILLOMA, SQUAMOUS CARCINOMA OR ADENOMA, SOFT TISSUE (INJECTION SITE): SARCOMA, THY): active; positive
carcinogen call (Species: RAT, Strain/Sex: WISTAR/MALE,FEMALE, Route: INTRAPERITONEAL, Dose: 0, 75 MG/KG 1/WK FOR 6 WK BEGINNING AT 52-61 DAYS OF AGE (STUDY DURATION: >35 WK), Tumor Site: Type of Lesion: ESOPHAGUS: PAPILLOMA, NASAL CAVITY: TUMOR, INJECTION SITE: SARCOMA, Tumor Site: Type of Lesion: ESOPHAGUS: PAPILLOMA, NASAL CAVITY: TUMOR, INJECTION SITE: SARCOMA): active; positive

Cc1ccc2c(c1[N+](=O)[O-])C(=O)c1ccccc1C2=O
carcinogen call (Species: MOUSE, Strain/Sex: B6C3F1/FEMALE, Route: ORAL, Dose: 0, 0.03, 0.06% IN DIET, Dose: 0, 0.03, 0.06% IN DIET, Tumor Site: Type of Lesion: LIVER: HEMANGIOSARCOMA): active; positive
carcinogen call (Species: MOUSE, Strain/Sex: B6C3F1/MALE, Route: ORAL, Dose: 0, 0.03, 0.06% IN DIET, Dose: 0, 0.03, 0.06% IN DIET, Tumor Site: Type of Lesion: LIVER: HEMANGIOSARCOMA): active; positive
carcinogen call (Species: RAT, Strain/Sex: F344/MALE, Route: ORAL, Dose: 0, 0.12, 0.06% IN DIET, Dose: 0, 0.12, 0.06% IN DIET, Tumor Site: Type of Lesion: LIVER: HEPATOCELLULAR CARCINOMA OR NEOPLASTIC NODULE, INTEGUMENTARY SYSTEM (SUBCUTANEOUS TISSUE): FIBROMA): active; positive

C[C@]12CC[C@@H]3C4=C(CC[C@H]3[C@@H]1CCC2=O)C(=O)C(=O)C=C4
carcinogen call (Species: RAT, Strain/Sex: STRAIN-CD/FEMALE, Route: INJECTION, Dose: 0, 30 UMOL (TOTAL DOSE) 1/6 INJECTED UNDER EACH OF 3 THORACIC AND 3 INGUINAL NIPPLES ONCE (STUDY DURATION: 44 WK)): inactive; negative

CNc1nncc2ccccc12
carcinogen call (Species: MOUSE, Strain/Sex: SWISS/MALE,FEMALE, Route: ORAL, Dose: 0.125% IN WATER, Tumor Site: Type of Lesion: LUNG): active; positive
carcinogen call (Species: RAT, Strain/Sex: SPRAGUE-DAWLEY/MALE, Route: ORAL, Dose: 0, 0.035% IN DIET FOR 68-87 WK (STUDY DURATION: 87 WK)): inactive; negative
carcinogen call (Species: RAT, Strain/Sex: SPRAGUE-DAWLEY/MALE, Route: SUBCUTANEOUS, Dose: 0, 16.7 MG/KG 1/WK FOR 87 WK (STUDY DURATION: 87 WK)): inactive; negative
carcinogen call (Species: RAT, Strain/Sex: SPRAGUE-DAWLEY/MALE, Route: SUBCUTANEOUS, Dose: 0, 16.7 MG/KG 1/WK FOR 87 WK ADMINISTERED TO PARTIALLY HEPATECTOMIZED RATS (STUDY DURATION: 87 WK)): inactive; negative

CN(CCC(=O)O)N=O
carcinogen call (Species: MOUSE, Strain/Sex: STRAIN-A/FEMALE, Route: INTRAPERITONEAL, Dose: 0, 200 UMOL MOUSE (TOTAL DOSE) ADMINISTERED IN 0.1 ML SALINE 3/WK (TOTAL 20 INJECTIONS) (STUDY DURATION: 37 WK), Tumor Site: Type of Lesion: LUNG: ADENOCARCINOMA, ADENOMA): active; positive

Cc1ccc(N=CN(C)C=Nc2ccc(C)cc2C)c(C)c1
carcinogen call (Species: Mouse, Strain/Sex: B6C3F1/Female, Route: Oral (diet), Dose: 0, 25, 100, 400 ppm in feed for 104 wks, Dose: 0, 25, 100, 400 ppm in feed for 104 wks, Tumor Site: Type of Lesion: Liver: Hepatocellular adenoma/carcinoma (5/80, 1/61, 3/62, 24/56)): active; positive (at highest dose)
carcinogen call (Species: Mouse, Strain/Sex: B6C3F1/Male, Route: Oral (diet), Dose: 0, 25, 100, 400 ppm in feed for 104 wks, Dose: 0, 25, 100, 400 ppm in feed for 104 wks): inactive; negative
carcinogen call (Species: Rat, Strain/Sex: Wistar/Female, Route: Oral (diet), Dose: 0, 15, 50, 200 ppm in feed for 104 wks, Dose: 0, 15, 50, 200 ppm in feed for 104 wks): inactive; negative; purity 97.8 and 99.8%
carcinogen call (Species: Rat, Strain/Sex: Wistar/Male, Route: Oral (diet), Dose: 0, 15, 50, 200 ppm in feed for 104 wks, Dose: 0, 15, 50, 200 ppm in feed for 104 wks): inactive; negative; purity 97.8 and 99.8%

O=CC1CO1 (stereo unspecified)
carcinogen call (Species: MOUSE, Route: DERMAL, Tumor Site: Type of Lesion: INTEGUMENTARY SYSTEM (SKIN)): active; positive
carcinogen call (Species: MOUSE, Route: SUBCUTANEOUS, Tumor Site: Type of Lesion: INJECTION SITE): active; positive

CN(CC(O)CO)N=O (stereo unspecified)
carcinogen call (Species: HAMSTER, Strain/Sex: SYRIAN/FEMALE, Route: GAVAGE, Dose: 0, 2.4 MG IN 0.2 ML OF WATER 1/WK FOR 41 WK FOR A TOTAL DOSE OF 98 MG (STUDY DURATION: 45 WK), Tumor Site: Type of Lesion: NASAL MUCOSA: CARCINOMA, ADENOMA): active; positive

c1ccc2ncccc2c1
carcinogen call (Species: MOUSE, Route: ORAL, Tumor Site: Type of Lesion: LIVER): active; positive
carcinogen call (Species: MOUSE, Strain/Sex: CD-1/FEMALE, Route: INTRAPERITONEAL, Dose: 0, 0.25, 0.5, 1.0 UMOL IN DMSO TO NEWBORN MICE ON DAYS 1, 8 AND 15 OF LIFE RESPECTIVELY (TOTAL DOSE: 1.75 UMOL) (STUDY D, Dose: 0, 0.25, 0.5, 1.0 UMOL IN DMSO TO NEWBORN MICE ON DAYS 1, 8 AND 15 OF LIFE RESPECTIVELY (TOTAL DOSE: 1.75 UMOL) (STUDY D): inactive; negative
carcinogen call (Species: MOUSE, Strain/Sex: CD-1/FEMALE, Route: INTRAPERITONEAL, Dose: 0, 1.75 UMOL/MOUSE (TOTAL DOSE) ADMINISTERED DURING DAYS 1, 8, AND 15 OF LIFE (STUDY DURATION: 52 WK)): inactive; negative
carcinogen call (Species: MOUSE, Strain/Sex: CD-1/MALE, Route: INTRAPERITONEAL, Dose: 0, 0.25, 0.5, 1.0 UMOL IN DMSO TO NEWBORN MICE ON DAY 1,8 AND 15 OF LIFE RESPECTIVELY (TOTAL DOSE: 1,75 UMOL) (STUDY DUR, Dose: 0, 0.25, 0.5, 1.0 UMOL IN DMSO TO NEWBORN MICE ON DAY 1,8 AND 15 OF LIFE RESPECTIVELY (TOTAL DOSE: 1,75 UMOL) (STUDY DUR, Tumor Site: Type of Lesion: LIVER: HEPATOMA, ADENOMA): active; positive
carcinogen call (Species: MOUSE, Strain/Sex: CD-1/MALE, Route: INTRAPERITONEAL, Dose: 0, 1.75 UMOL/MOUSE (TOTAL DOSE) ADMINISTERED DURING DAYS 1, 8, AND 15 OF LIFE (STUDY DURATION: 52 WK), Tumor Site: Type of Lesion: LIVER: ADENOMA OR CARCINOMA): active; positive
carcinogen call (Species: RAT, Route: ORAL, Tumor Site: Type of Lesion: LIVER): active; positive
carcinogen call (Species: RAT, Strain/Sex: SPRAGUE-DAWLEY/FEMALE, Route: SUBCUTANEOUS, Dose: 0, 200 UMOL/KG IN DMSO INTO SUPRASCAPULAR AREA ON DAY 1 OF LIFE FOLLOWED BY 0, 100 UMOL 1/WK AT WK 2-7 THEN 0, 200 UMOL/, Dose: 0, 200 UMOL/KG IN DMSO INTO SUPRASCAPULAR AREA ON DAY 1 OF LIFE FOLLOWED BY 0, 100 UMOL 1/WK AT WK 2-7 THEN 0, 200 UMOL/): inactive; negative
carcinogen call (Species: RAT, Strain/Sex: SPRAGUE-DAWLEY/MALE, Route: SUBCUTANEOUS, Dose: 0, 200 UMOL/KG IN DMSO INTO SUPRASCAPULAR AREA ON DAY 1 OF LIFE FOLLOWED BY 0, 100 UMOL 1/WK AT WK 2-7 THEN 0, 200 UMOL/, Dose: 0, 200 UMOL/KG IN DMSO INTO SUPRASCAPULAR AREA ON DAY 1 OF LIFE FOLLOWED BY 0, 100 UMOL 1/WK AT WK 2-7 THEN 0, 200 UMOL/): inactive; negative
carcinogen call (Species: RAT, Strain/Sex: WISTAR/MALE, Route: ORAL, Dose: 0, 0.25% IN DIET FOR 4 WK (STUDY DURATION: 20 WK)): inactive; negative
carcinogen call (Species: RAT, Strain/Sex: WISTAR/MALE, Route: ORAL, Dose: 0, 0.25% IN DIET FOR 8 WK (STUDY DURATION: 20 WK)): inactive; negative
carcinogen call (Species: RAT, Strain/Sex: WISTAR/MALE, Route: ORAL, Dose: 0, 0.25% IN DIET FOR 12 WK (STUDY DURATION: 20 WK), Tumor Site: Type of Lesion: LIVER: HEMANGIOENDOTHELIOMA): active; positive
carcinogen call (Species: RAT, Strain/Sex: WISTAR/MALE, Route: ORAL, Dose: 0, 0.25% IN DIET FOR 16 WK (STUDY DURATION: 20 WK), Tumor Site: Type of Lesion: LIVER: HEMANGIOENDOTHELIOMA): active; positive
carcinogen call (Species: RAT, Strain/Sex: WISTAR/MALE, Route: ORAL, Dose: 0, 0.25% IN DIET FOR 20 WK (STUDY DURATION: 20 WK), Tumor Site: Type of Lesion: LIVER: HEMANGIOENDOTHELIOMA): active; positive

— PubChem BioAssay AID1259411 (Chemical Carcinogenesis Research Information System (CCRIS), 2018)
